This is an account of results in ChEMBL document CHEMBL5365424, “Development of a highly potent and selective degrader of LRRK2” (Bioorg Med Chem Lett, 2023).

One may read the IC50 as the concentration that gives 50% inhibition. One may read the inhibition as the drop in the measured response relative to a control, in per cent.

Assay [1] concerns the target T1, Leucine-rich repeat serine/threonine-protein kinase 2 (Homo sapiens, UniProt Q5S007). Put plainly: Inhibition of recombinant human GST-tagged LRRK2 (970 to 2527 residues) expressed in insect cells using LRRKtide as substrate measured after 1 hr by Adapta TR-FRET assay. Further details: species or system Insect cell. Background: In TR-FRET formats the signal depends on donor and acceptor labels being close together.

For assay [2], the target named is T2, Protein cereblon/Leucine-rich repeat serine/threonine-protein kinase 2 (Mus musculus) (UniProt Q5S006+Q8C7D2). Put plainly: Protac activity at CRBN/LRRK2 in MEF cells assessed as induction of LRRK2 degradation at 10 to 1000 nM incubated for 1 to 48 hrs by Western blot analysis. The settings on record: dose 10-1000 nM, time 1-48 hrs. In kind it is cell-based. Background: A western blot detects proteins with antibodies after separation by electrophoresis.

Assay [3] deals with Leucine-rich repeat serine/threonine-protein kinase 2 (Homo sapiens, UniProt Q5S007, G2019S). The experiment in a line: Inhibition of recombinant human GST-tagged LRRK2 G2019S mutant (970 to 2527 residues) expressed in insect cells using LRRKtide as substrate measured after 1 hr by Adapta TR-FRET assay. On the set-up: species or system Insect cell.
The target in assay [4] is Leucine-rich repeat serine/threonine-protein kinase 2 (Mus musculus) (UniProt Q5S006). The experiment in a line: Induction of LRRK2 degradation in MEF cells by Western blot analysis. The format is cell-based.
The target of assay [5] is T3, Protein cereblon/Cyclin-G-associated kinase (Mus musculus) (UniProt Q8C7D2+Q99KY4). Put plainly: Induction of GAK degradation in MEF cells at 1 uM measured after 48 hrs by Western blot analysis. In kind it is cell-based.
Assay [6] deals with T2, Protein cereblon/Leucine-rich repeat serine/threonine-protein kinase 2 (Mus musculus). Put plainly: Protac activity at CRBN/LRRK2 in MEF cells assessed as induction of LRRK2 degradation at 1 uM incubated for 48 hrs in presence of cereblon degrader ZXH-03-153 by Western blot analysis. The format is cell-based.
Assay [7] relates to Leucine-rich repeat serine/threonine-protein kinase 2 (Homo sapiens), Q5S007 [G2019S]. The experiment in a line: Inhibition of human partial length LRRK2 G2019S mutant (H970 to E2527 residues) expressed in mammalian expression system at 1 uM by Kinomescan assay relative to control.
The target in assay [8] is T2, Protein cereblon/Leucine-rich repeat serine/threonine-protein kinase 2 (Mus musculus). The experiment in a line: Protac activity at CRBN/LRRK2 in MEF cells assessed as induction of LRRK2 degradation at 1000 nM incubated for 48 hrs by Western blot analysis. In kind it is cell-based.
The target in assay [9] is Leucine-rich repeat serine/threonine-protein kinase 2 (Mus musculus) (UniProt Q5S006). Put plainly: Inhibition of LRRK2 in MEF cells assessed as reduction in pS935 phosphorylation at 10 to 1000 nM measured after 24 to 48 hrs by Western blot analysis. The format is cell-based. The settings on record: dose 10-1000 nM, time 24-48 hrs.
Assay [10] addresses T2, Protein cereblon/Leucine-rich repeat serine/threonine-protein kinase 2 (Mus musculus). The experiment in a line: Protac activity at CRBN/LRRK2 in MEF cells assessed as induction of LRRK2 degradation at 1 uM incubated for 48 hrs by Western blot analysis. In kind it is cell-based.
For assay [11], the target named is T3, Protein cereblon/Cyclin-G-associated kinase (Mus musculus). The experiment in a line: Protac activity at CRBN/GAK in LRRK2 knockout MEF cells assessed as induction of GAK degradation at 1 uM measured after 48 hrs by Western blot analysis. In kind it is cell-based.
For assay [12], the target named is Leucine-rich repeat serine/threonine-protein kinase 2 (Mus musculus) (UniProt Q5S006). The experiment in a line: Inhibition of LRRK2 in MEF cells assessed as reduction in Rab10 phosphorylation at 10 to 1000 nM measured after 24 to 48 hrs by Western blot analysis. The format is cell-based. The settings on record: dose 10-1000 nM, time 24-48 hrs.
Assay [13] deals with Cereblon/Ikaros (Homo sapiens) (UniProt Q96SW2+Q13422). Put plainly: Protac activity at CRBN/IKZF1 in human MOLT-4 cells assessed as induction of IKZF1 degradation at 1 uM by proteomic analysis. In kind it is cell-based.
Assay [14] has as its system Protein cereblon/Leucine-rich repeat serine/threonine-protein kinase 2 (Mus musculus), Q5S006+Q8C7D2 [R1441C]. Put plainly: Protac activity at CRBN/LRRK2 R1441C mutant in MEF cells assessed as induction of LRRK2 degradation at 1 uM incubated for 48 hrs by Western blot analysis. In kind it is cell-based.
Assay [15] deals with Protein cereblon/Leucine-rich repeat serine/threonine-protein kinase 2 (Homo sapiens) (UniProt Q5S007+Q96SW2). Put plainly: Protac activity at CRBN/LRRK2 in human MOLT-4 cells assessed as induction of LRRK2 degradation at 1 uM by proteomic analysis. The format is cell-based.
The target in assay [16] is Protein cereblon/Zinc finger protein Aiolos (Homo sapiens) (UniProt Q96SW2+Q9UKT9). Put plainly: Protac activity at CRBN/IKZF3 in human MOLT-4 cells assessed as induction of IKZF3 degradation at 1 uM by proteomic analysis. The format is cell-based.
Assay [17] deals with Protein cereblon/Leucine-rich repeat serine/threonine-protein kinase 2 (Mus musculus), Q5S006+Q8C7D2 [R1441C]. The experiment in a line: Protac activity at CRBN/LRRK2 R1441C mutant in MEF cells assessed as induction of LRRK2 degradation at 1 uM incubated for 48 hrs in presence of MLi-2 by Western blot analysis. In kind it is cell-based.
Assay [18] deals with T1, Leucine-rich repeat serine/threonine-protein kinase 2. Put plainly: Inhibition of human wild-type partial length LRRK2 (H970 to E2527 residues) expressed in mammalian expression system at 1 uM by Kinomescan assay relative to control.
For assay [19], the target named is T3, Protein cereblon/Cyclin-G-associated kinase (Mus musculus). The experiment in a line: Protac activity at CRBN/GAK in MEF cells assessed as induction of GAK degradation at 1 uM measured after 48 hrs by Western blot analysis. In kind it is cell-based.
Assay [20] relates to Protein cereblon/Leucine-rich repeat serine/threonine-protein kinase 2 (Mus musculus), Q5S006+Q8C7D2 [R1441C]. The experiment in a line: Protac activity at CRBN/LRRK2 R1441C mutant in MEF cells assessed as induction of LRRK2 degradation at 1 uM incubated for 48 hrs in presence of cereblon degrader ZXH-03-153 by Western blot analysis. In kind it is cell-based.
For assay [21], the target named is Protein cereblon/Cyclin-G-associated kinase (Homo sapiens) (UniProt O14976+Q96SW2). Put plainly: Protac activity at CRBN/GAK in human MOLT-4 cells assessed as induction of GAK degradation at 1 uM by proteomic analysis. The format is cell-based.
Assay [22] concerns the target T2, Protein cereblon/Leucine-rich repeat serine/threonine-protein kinase 2 (Mus musculus). Put plainly: Protac activity at CRBN/LRRK2 in MEF cells assessed as induction of LRRK2 degradation at 1 uM incubated for 48 hrs in the presence of MLi-2 by Western blot analysis. The format is cell-based.
In assay [23] the target is Protein cereblon/E3 ubiquitin-protein ligase ZFP91 (Homo sapiens) (UniProt Q96SW2+Q96JP5). Put plainly: Protac activity at CRBN/ZFP91 in human MOLT-4 cells assessed as induction of ZFP91 degradation at 1 uM by proteomic analysis. The format is cell-based.
Assay [24] addresses Leucine-rich repeat serine/threonine-protein kinase 2 (Mus musculus) (UniProt Q5S006). The experiment in a line: Induction of LRRK2 degradation in MEF cells at 100 nM measured after 2 hrs by Western blot analysis. In kind it is cell-based.
The target of assay [25] is von Hippel-Lindau disease tumor suppressor/Leucine-rich repeat serine/threonine-protein kinase 2 (Mus musculus) (UniProt Q5S006+P40338). The experiment in a line: Protac activity at VHL/LRRK2 in MEF cells assessed as induction of LRRK2 degradation measured after 48 hrs by Western blot analysis. The format is cell-based.
Assay [26] relates to von Hippel-Lindau disease tumor suppressor/Leucine-rich repeat serine/threonine-protein kinase 2 (Mus musculus), Q5S006+P40338 [R1441C]. The experiment in a line: Protac activity at VHL/LRRK2 R1441C mutant in MEF cells assessed as induction of LRRK2 degradation incubated for 48 hrs by Western blot analysis. In kind it is cell-based.
Assay [27] addresses Leucine-rich repeat serine/threonine-protein kinase 2 (Mus musculus) (UniProt Q5S006). The experiment in a line: Inhibition of LRRK2 in MEF cells assessed as reduction in pS935 phosphorylation measured after 24 to 48 hrs by Western blot analysis. The format is cell-based. The settings on record: time 24-48 hrs.

Calls of active or inactive are those of the source. No cut-off for these calls is given here.

T3 sequence (Q8C7D2 whole entry, looked up): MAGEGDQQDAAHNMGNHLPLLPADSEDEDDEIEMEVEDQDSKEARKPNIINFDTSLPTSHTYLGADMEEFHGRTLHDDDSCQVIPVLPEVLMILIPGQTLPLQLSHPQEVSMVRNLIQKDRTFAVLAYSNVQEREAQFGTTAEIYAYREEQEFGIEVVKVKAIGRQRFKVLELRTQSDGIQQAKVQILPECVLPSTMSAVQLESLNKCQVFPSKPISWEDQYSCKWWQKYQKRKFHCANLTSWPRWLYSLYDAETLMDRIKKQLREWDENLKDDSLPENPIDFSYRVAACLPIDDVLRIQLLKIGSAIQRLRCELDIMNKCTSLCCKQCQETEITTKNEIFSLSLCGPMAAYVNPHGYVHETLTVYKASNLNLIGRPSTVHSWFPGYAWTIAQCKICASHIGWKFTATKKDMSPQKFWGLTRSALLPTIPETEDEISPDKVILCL
T3 sequence (Q99KY4 whole entry, looked up): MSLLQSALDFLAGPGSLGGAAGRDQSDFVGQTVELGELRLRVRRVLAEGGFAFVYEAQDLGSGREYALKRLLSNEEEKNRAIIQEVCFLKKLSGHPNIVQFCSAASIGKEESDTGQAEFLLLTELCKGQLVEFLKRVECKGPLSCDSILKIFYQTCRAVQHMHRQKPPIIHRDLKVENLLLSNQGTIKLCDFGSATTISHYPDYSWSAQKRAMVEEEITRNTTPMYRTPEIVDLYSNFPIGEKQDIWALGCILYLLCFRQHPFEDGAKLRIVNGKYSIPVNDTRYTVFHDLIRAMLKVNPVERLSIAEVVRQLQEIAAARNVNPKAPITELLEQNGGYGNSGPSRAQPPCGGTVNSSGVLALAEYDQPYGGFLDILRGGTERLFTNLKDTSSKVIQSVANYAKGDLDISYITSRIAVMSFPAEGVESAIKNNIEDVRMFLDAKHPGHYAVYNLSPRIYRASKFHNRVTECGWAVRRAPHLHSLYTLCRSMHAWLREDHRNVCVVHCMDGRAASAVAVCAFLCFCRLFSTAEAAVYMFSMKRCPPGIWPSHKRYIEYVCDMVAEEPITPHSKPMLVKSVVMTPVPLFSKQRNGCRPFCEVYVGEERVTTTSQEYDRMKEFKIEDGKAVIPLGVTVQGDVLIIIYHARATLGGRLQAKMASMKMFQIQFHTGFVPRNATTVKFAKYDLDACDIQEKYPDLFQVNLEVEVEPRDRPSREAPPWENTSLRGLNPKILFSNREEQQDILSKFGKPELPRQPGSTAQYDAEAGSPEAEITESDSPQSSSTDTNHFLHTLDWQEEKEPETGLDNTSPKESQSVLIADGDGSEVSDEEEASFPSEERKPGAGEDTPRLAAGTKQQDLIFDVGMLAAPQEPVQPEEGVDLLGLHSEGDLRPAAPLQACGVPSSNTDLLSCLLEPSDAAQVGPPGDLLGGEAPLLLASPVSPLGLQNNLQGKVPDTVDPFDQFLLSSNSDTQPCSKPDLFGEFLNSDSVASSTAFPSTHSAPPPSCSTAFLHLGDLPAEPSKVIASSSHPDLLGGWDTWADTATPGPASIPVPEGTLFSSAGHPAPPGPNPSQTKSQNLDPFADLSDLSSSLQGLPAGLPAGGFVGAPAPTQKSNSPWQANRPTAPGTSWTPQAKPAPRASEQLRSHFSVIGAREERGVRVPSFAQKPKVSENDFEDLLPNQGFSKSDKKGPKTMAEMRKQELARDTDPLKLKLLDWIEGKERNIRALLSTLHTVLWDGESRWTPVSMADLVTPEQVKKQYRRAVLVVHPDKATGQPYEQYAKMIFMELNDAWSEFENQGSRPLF
Leucine-rich repeat serine/threonine-protein kinase 2 (Mus musculus), sequence (Q5S006 whole entry): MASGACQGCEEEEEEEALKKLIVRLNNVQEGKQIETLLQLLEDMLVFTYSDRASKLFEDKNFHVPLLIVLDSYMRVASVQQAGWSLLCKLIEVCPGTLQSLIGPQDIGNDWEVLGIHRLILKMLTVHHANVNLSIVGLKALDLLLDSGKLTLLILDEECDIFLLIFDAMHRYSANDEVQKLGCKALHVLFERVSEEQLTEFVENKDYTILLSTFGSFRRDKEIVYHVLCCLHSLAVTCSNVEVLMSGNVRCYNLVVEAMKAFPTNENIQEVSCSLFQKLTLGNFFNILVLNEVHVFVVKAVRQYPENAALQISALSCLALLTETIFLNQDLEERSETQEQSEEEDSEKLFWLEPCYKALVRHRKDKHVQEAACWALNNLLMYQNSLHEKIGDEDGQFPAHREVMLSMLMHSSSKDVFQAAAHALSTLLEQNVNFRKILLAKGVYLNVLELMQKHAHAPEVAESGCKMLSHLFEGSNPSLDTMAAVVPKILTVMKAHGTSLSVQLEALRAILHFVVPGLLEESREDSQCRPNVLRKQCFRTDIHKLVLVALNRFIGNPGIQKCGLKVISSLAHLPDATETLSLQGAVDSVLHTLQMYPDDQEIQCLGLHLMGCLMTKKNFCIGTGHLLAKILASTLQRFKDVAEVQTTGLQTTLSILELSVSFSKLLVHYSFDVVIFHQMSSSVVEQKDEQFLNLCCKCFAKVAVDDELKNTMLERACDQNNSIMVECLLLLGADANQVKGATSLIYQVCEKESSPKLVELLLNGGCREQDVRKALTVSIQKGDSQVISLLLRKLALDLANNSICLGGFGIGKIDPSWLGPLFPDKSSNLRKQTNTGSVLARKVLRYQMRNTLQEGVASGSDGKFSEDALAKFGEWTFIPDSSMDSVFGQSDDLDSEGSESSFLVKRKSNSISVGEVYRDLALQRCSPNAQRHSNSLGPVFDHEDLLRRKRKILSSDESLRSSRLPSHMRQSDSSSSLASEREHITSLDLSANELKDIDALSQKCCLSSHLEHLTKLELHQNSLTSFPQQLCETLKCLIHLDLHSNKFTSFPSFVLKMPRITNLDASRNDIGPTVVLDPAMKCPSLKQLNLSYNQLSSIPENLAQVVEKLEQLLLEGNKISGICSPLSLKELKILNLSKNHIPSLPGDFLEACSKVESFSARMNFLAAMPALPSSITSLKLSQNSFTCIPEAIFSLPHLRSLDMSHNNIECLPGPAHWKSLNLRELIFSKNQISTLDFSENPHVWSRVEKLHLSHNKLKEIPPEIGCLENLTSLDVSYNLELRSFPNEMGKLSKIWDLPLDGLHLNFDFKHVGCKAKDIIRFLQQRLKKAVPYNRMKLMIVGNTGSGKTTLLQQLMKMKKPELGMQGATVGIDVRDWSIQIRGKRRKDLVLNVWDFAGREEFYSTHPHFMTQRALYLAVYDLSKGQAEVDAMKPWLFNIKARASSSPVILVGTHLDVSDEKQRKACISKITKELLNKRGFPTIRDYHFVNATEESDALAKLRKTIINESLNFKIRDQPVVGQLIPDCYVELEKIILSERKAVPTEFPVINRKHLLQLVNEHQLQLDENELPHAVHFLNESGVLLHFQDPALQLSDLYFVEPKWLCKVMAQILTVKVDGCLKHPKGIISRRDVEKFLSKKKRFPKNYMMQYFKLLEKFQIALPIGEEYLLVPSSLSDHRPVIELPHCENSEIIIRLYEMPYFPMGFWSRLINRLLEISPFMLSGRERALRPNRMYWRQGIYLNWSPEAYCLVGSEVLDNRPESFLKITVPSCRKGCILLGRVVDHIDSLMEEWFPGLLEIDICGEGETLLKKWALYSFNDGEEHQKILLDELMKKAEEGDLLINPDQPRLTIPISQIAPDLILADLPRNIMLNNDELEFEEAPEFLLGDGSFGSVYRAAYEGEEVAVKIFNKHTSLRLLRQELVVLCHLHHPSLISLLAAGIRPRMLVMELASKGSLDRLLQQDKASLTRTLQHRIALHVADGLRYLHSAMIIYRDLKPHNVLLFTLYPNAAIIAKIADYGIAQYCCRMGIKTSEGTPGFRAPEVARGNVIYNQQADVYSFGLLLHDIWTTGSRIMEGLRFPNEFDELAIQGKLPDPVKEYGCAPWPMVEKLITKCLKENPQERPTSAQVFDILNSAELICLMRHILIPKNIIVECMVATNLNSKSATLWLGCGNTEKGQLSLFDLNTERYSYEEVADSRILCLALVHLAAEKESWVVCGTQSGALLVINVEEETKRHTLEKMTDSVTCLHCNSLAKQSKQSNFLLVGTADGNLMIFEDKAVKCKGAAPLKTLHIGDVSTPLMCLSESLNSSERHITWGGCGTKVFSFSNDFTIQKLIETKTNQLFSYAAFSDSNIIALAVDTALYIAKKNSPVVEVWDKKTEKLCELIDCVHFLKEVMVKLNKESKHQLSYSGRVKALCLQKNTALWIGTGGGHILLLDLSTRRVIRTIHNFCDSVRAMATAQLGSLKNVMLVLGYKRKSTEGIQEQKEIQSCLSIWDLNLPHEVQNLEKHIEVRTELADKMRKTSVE
T2 sequence (Q5S006 whole entry, looked up): as the sequence (Q5S006 whole entry) above
T2 sequence (Q8C7D2 whole entry, looked up): as the sequence (Q8C7D2 whole entry, looked up) above
von Hippel-Lindau disease tumor suppressor/Leucine-rich repeat serine/threonine-protein kinase 2 (Mus musculus), sequence (P40338 whole entry, looked up): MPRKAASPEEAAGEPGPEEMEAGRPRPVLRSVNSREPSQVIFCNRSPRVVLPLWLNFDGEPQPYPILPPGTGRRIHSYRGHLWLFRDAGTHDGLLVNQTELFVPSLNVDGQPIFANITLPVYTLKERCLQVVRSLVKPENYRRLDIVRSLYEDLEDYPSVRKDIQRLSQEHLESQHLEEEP
von Hippel-Lindau disease tumor suppressor/Leucine-rich repeat serine/threonine-protein kinase 2 (Mus musculus), sequence (Q5S006 whole entry, looked up): as the sequence (Q5S006 whole entry) above

In the case of `CC1(Oc2ccc3[nH]nc(-c4cc(N5CCN(C(=O)CCOCCOCCOCCOCCNc6cccc7c6C(=O)N(C6CCC(=O)NC6=O)C7)CC5)ncn4)c3c2)CC1` (stereo not drawn), the IC50 in [1] and in [3] was 3 nM each time. Further, the result in assay [2] was Active.

On to `C[C@@H]1CN(c2cc(-c3n[nH]c4ccc(OC5(C)CC5)cc34)ncn2)C[C@H](C)O1`, for which the outcome in assay [4] and in [5] was inactive.

Consider `CC1(Oc2ccc3[nH]nc(-c4cc(N5CCN(C(=O)CCOCCNc6cccc7c6C(=O)N(C6CCC(=O)NC6=O)C7)CC5)ncn4)c3c2)CC1` (stereo not drawn), for which the IC50 in [1] is 3 nM; in assay [3], 2 nM. Besides, in assay [2], the outcome was Active.

`CC1(Oc2ccc3[nH]nc(-c4cc(N5CCN(C(=O)CCOCCOCCOCCOCCNc6cccc7c6C(=O)N(C6CCC(=O)NC6=O)C7=O)CC5)ncn4)c3c2)CC1` (stereo not drawn): the result in assay [6], in assay [17], in assay [20] and in [22] was inactive. In addition, the inhibition in assay [7] and in assay [18] was over 85% in each case. Moreover, the result in assay [8], in [10], in assay [11], in [13], in assay [14] and in assay [15] was Active. Besides, the outcome in [16], in assay [19], in assay [21] and in assay [23] was Active. For the same molecule, the inhibition result in assay [9] and in assay [12] was “Active” throughout. In addition, the IC50 in assay [1] and in assay [3] was 1 nM in each case.

Take `Nc1cccc2c1CN(C1CCC(=O)NC1=O)C2=O` (stereo not drawn): the result in [2] was Active.

For `O=C1CCC(N2C(=O)c3cccc(NCCCCCNc4cccc5c4C(=O)N(C4CCC(=O)NC4=O)C5=O)c3C2=O)C(=O)N1` (stereo not drawn), the outcome in assay [24] was Active.

In the case of `CC1(Oc2ccc3[nH]nc(-c4cc(N5CCN(C(=O)CCOCCNc6cccc7c6C(=O)N(C6CCC(=O)NC6=O)C7=O)CC5)ncn4)c3c2)CC1` (stereo not drawn), the IC50 in assay [1] amounted to 2 nM; in [3], 1 nM. Moreover, the outcome in [2] was Active.

As to `Cc1ncsc1-c1ccc([C@@H](C)NC(=O)[C@H]2C[C@H](O)CN2C(=O)[C@H](NC(=O)CCOCCOCCOCCC(=O)N2CCN(c3cc(-c4n[nH]c5ccc(OC6(C)CC6)cc45)ncn3)CC2)C(C)(C)C)cc1`, the IC50 was found to be 6 nM in assay [1] and 7 nM in assay [3].

`CC1(Oc2ccc3[nH]nc(-c4cc(N5CCN(C(=O)CCOCCOCCNc6cccc7c6C(=O)N(C6CCC(=O)NC6=O)C7)CC5)ncn4)c3c2)CC1` (stereo not drawn): the IC50 in assay [1] amounted to 3 nM; in assay [3], 2 nM. Besides, the result in assay [2] was Active.

On to `CC1(Oc2ccc3[nH]nc(-c4cc(N5CCN(C(=O)CCOCCOCCNc6cccc7c6C(=O)N(C6CCCNC6=O)C7=O)CC5)ncn4)c3c2)CC1` (stereo not drawn), for which the IC50 in assay [1] and in [3] was 2 nM throughout. Moreover, the outcome in assay [25] and in assay [26] was inactive. In addition, the inhibition entry in [27] was “Active”.

In the case of `Cc1ncsc1-c1ccc([C@H](C)NC(=O)[C@@H]2C[C@@H](O)CN2C(=O)[C@@H](NC(=O)CCOCCOCCOCCOCCC(=O)N2CCN(c3cc(-c4n[nH]c5ccc(OC6(C)CC6)cc45)ncn3)CC2)C(C)(C)C)cc1`, the IC50 stood at 3 nM in [1] and 4 nM in assay [3].

As for `CC1(Oc2ccc3[nH]nc(-c4cc(N5CCN(C(=O)CCOCCOCCNc6cccc7c6C(=O)N(C6CCC(=O)NC6=O)C7=O)CC5)ncn4)c3c2)CC1` (stereo not drawn), the outcome in [8] was Active. Moreover, the IC50 in assay [1] and in assay [3] was 1 nM throughout.
